What all share (assay type): functional
The test system of one assay is COLO 205. The experiment in a line: Cytotoxicity against human COLO205 cells. As to conditions: read-out: ED50 (the source's name).
A further assay deals with HCT-116. The experiment in a line: Cytotoxicity against human HCT116 cells. As to conditions: read-out: ED50 (the source's name).
In another assay the test system is HT-29. The experiment in a line: Cytotoxicity against human HT-29 cells. The following applies: read-out: ED50 (the source's name).
The next assay concerns KM12. Briefly: Cytotoxicity against human KM12 cells. As to conditions: read-out: ED50 (the source's name).
A further assay relates to HCT-15. Briefly: Cytotoxicity against human HCT15 cells. As to conditions: read-out: ED50 (the source's name).
The next assay concerns SW-620. Briefly: Cytotoxicity against human SW620 cells. The following applies: read-out: ED50 (the source's name).
The next assay has as its system SK-MEL-5. The experiment in a line: Cytotoxicity against human SK-MEL-5 cells. As to conditions: read-out: LC50 (the source's name).
In a further assay the test system is SK-MEL-28. Briefly: Cytotoxicity against human SK-MEL-28 cells. The following applies: read-out: LC50 (the source's name).
The next assay relates to UACC-62. The experiment in a line: Cytotoxicity against human UACC62 cells. The following applies: read-out: LC50 (the source's name).

This passage reports EC50 and CC50 results from ChEMBL document CHEMBL1159379, “Rhuschalcones II-VI, five new bichalcones from the root bark of Rhus pyroides” (2003).

In brackets after ≈: the same amount, converted by molar mass.

In the case of `O=C(/C=C/c1ccc(O)c(-c2cc(C(=O)/C=C/c3ccc(O)cc3)c(O)cc2O)c1)c1ccc(O)cc1O` [RHUSCHALCONE VI], the EC50 was 24 µg/mL (≈ 47 µM) in the assay with COLO 205, 5 µg/mL (≈ 9.79 µM) in the assay on HCT-116 and 10 µg/mL (≈ 19.6 µM) with HT-29.

As to `O=C(/C=C/c1ccc(Oc2cc(C(=O)/C=C/c3ccc(O)cc3)c(O)cc2O)cc1)c1ccc(O)cc1O` [RHUSCHALCONE II], the EC50 in the assay on KM12 came to 19 µg/mL (≈ 37.2 µM); in the assay with COLO 205, 15 µg/mL (≈ 29.4 µM); with HCT-116, 15 µg/mL (≈ 29.4 µM); with HT-29 it was 14 µg/mL (≈ 27.4 µM).

As to `COc1ccc(C(=O)/C=C/c2ccc(Oc3cc(C(=O)/C=C/c4ccc(O)cc4)c(O)cc3OC)cc2)c(O)c1` [RHUSCHALCONE I], the EC50 in the assay on HCT-15 worked out at 51 µg/mL (≈ 94.7 µM); in the assay with SW-620, 42 µg/mL (≈ 78 µM); with KM12 it was 17 µg/mL (≈ 31.6 µM); with COLO 205 it was 11 µg/mL (≈ 20.4 µM); with HCT-116, 5 µg/mL (≈ 9.28 µM); with HT-29, 3 µg/mL (≈ 5.57 µM).

As for `COc1cc(O)c(C(=O)/C=C/c2ccc(O)cc2)cc1Oc1ccc(C(=O)/C=C/c2ccc(O)cc2)c(O)c1` [RHUSCHALCONE IV], in the assay on COLO 205, the EC50 amounted to 23 µg/mL (≈ 43.8 µM). The CC50 is 4.8 µg/mL (≈ 9.15 µM) in the assay with SK-MEL-5, 4.6 µg/mL (≈ 8.77 µM) in the assay with SK-MEL-28 and 4.6 µg/mL (≈ 8.77 µM) with UACC-62.

For `COc1cc(O)c(C(=O)/C=C/c2ccc(O)cc2)cc1Oc1ccc(/C=C/C(=O)c2ccc(O)cc2O)cc1` [RHUSCHALCONE III], the EC50 with HCT-15 came to 4 µg/mL (≈ 7.63 µM); with SW-620, 3 µg/mL (≈ 5.72 µM); with KM12, 4 µg/mL (≈ 7.63 µM); in the assay with COLO 205 it was 4 µg/mL (≈ 7.63 µM); with HCT-116 it was 5 µg/mL (≈ 9.53 µM); with HT-29, 3 µg/mL (≈ 5.72 µM).
